Measured values reported in patent publication US20240360114A1 (SIRONAX LTD., priority 2021, published 2024).

Test system: HT-1080 cells
Test: HT-1080 cell viability assay (ferroptosis induced by RSL3, Cell Titer-Glo)
Format: cell-based
Details: ferroptosis inducer RSL3, 20 hours, ferroptosis inhibitory activity
Method in brief: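 EC50 fitted by sigmoidal dose-response regression on luminescent viability data normalized to untreated cells. Compounds ran as a 10-point, 3-fold series from 1.1 μM alongside RSL3 for 20 hours, after overnight seeding.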

[1] = Homo sapiens, HT-1080, 20 h, Table 3
[2] = Homo sapiens, HT-1080, 20 h, Table 2

| SMILES | EC50 [2] | other results |
| --- | --- | --- |
| Cc1nc(N2CC(C)N(CC(F)(F)F)C(C)C2)c(F)cc1NC1CC2(CC(N)C2)C1 (stereo not drawn) [Compound 641, N^2-(6-(3,5-dimethyl-4-(2,2,2-trifluoroethyl)piperazin-1-yl)-5-fluoro-2-methylpyridin-3-yl)spiro [3.3]heptane-2,6-diamine] | – | EC50 [1]: 0.1 to 100 nM |
| CC[C@@H]1CN(c2ccc(NC3CC4(CC(N)C4)C3)c(C)n2)C[C@H](CC)O1 (stereo partly drawn) [Compound 549] | 0.1 to 100 nM | – |
| CC1(N)CCC(Nc2ccc3c(c2)CCCC3)CC1 (stereo not drawn) [Compound 285, 1-methyl-N4-(5,6,7,8-tetrahydronaphthalen-2-yl)cyclohexane-1,4-diamine] | – | EC50 (Table 2): 0.1 to 100 nM |
| CC(C)(C)c1ccc(NCC2CCC(CN)C2)cc1 (stereo not drawn) [Compound 340, N-((3-(aminomethyl)cyclopentyl)methyl)-4-(tert-butyl)aniline] | 0.1 to 100 nM | – |
| CC[C@@H]1CN(c2ccc(NC3CC4(CC(N)C4)C3)c(C)n2)C[C@@H](CC)O1 (stereo partly drawn) [Compound 550] | 0.1 to 100 nM | – |
| CC(C)(C)c1ccc(N[C@@H]2C[C@H](N)C[C@H](Nc3ccc(C(C)(C)C)cc3)C2)cc1 [Compound 351, (1R, 3S,5r)-N1,N3-bis(4-(tert-butyl)phenyl)cyclohexane-1,3,5-triamine] | 0.1 to 100 nM | – |
| CC1(C)CCN(c2ncc(NC3C4CC5CC3CC(C(N)=O)(C5)C4)cn2)CC1 (stereo not drawn) [Compound 410, 4-((2-(4,4-dimethylpiperidin-1-yl)pyrimidin-5-yl)amino)adamantane-1-carboxamide] | 0.1 to 100 nM | – |
| NC1CCC(Nc2ccc3c(c2)OCC3)CC1 (stereo not drawn) [Compound 166, N1-(2,3-dihydrobenzofuran-6-yl)cyclohexane-1,4-diamine] | 1000 to 10000 nM | – |
| Cc1cc(NC[C@H]2CC[C@H](N)CC2)cc(F)c1N1CC(C)OC(C)C1 (stereo partly drawn) [Compound 464, N-(((1r,4r)-4-aminocyclohexyl)methyl)-4-(2,6-dimethylmorpholino)-3-fluoro-5-methylaniline] | 0.1 to 100 nM | – |
| NC1CCC(Nc2ccc(N3CCC(C(F)(F)F)CC3)cc2F)CC1 (stereo not drawn) [Compound 71, N1-(2-fluoro-4-(4-(trifluoromethyl)piperidin-1-yl)phenyl)cyclohexane-1,4-diamine] | 0.1 to 100 nM | – |
| CC(Nc1ccc(C(C)(C)C)cc1)[C@H]1CC[C@H](N)CC1 (stereo partly drawn) [Compound 350, N—((S)-1-((1r,4S)-4-aminocyclohexyl)ethyl)-4-(tert-butyl)aniline] | 0.1 to 100 nM | – |
| Cc1cc(NC2CCC(N)CC2)cc(C)c1C (single isomer, unassigned) [Compound 182A, N1-(3,4,5-trimethylphenyl)cyclohexane-1,4-diamine] | 100 to 1000 nM | – |
| Cc1cc(NC[C@H]2CC[C@H](N)CC2)ccc1NC(C)(C)C [Compound 622, N^4-(((1r,4r)-4-aminocyclohexyl)methyl)-N′-(tert-butyl)-2-methylbenzene-1,4-diamine] | – | EC50 [1]: 0.1 to 100 nM |
| CC(C)(C)c1ccc(NC2CCC(N)CC2)cc1C#N (stereo not drawn) [Compound 218, 5-((4-aminocyclohexyl)amino)-2-(tert-butyl)benzonitrile] | 100 to 1000 nM | – |
| CCC(C)c1ccc(NC2CCC(N)CC2)cc1 (single isomer, unassigned) [Compound 289B, 1-N-(4-(sec-butyl)phenyl)cyclohexane-1,4-diamine] | – | EC50 (Table 2): 100 to 1000 nM |
| CCc1nc(N2C[C@@H](C)O[C@@H](C)C2)ccc1NC1CC2(CC(N)C2)C1 (stereo partly drawn) [Compound 545, N^2-(6-((2S,6R)-2,6-dimethylmorpholino)-2-ethylpyridin-3-yl)spiro[3.3]heptane-2,6-diamine] | 0.1 to 100 nM | – |
| Cc1nc(N2CC(C)N(C(=O)C(F)(F)F)C(C)C2)ccc1NC1CC2CCC(C1)N2 (stereo not drawn) [Compound 642, 1-(4-(5-((8-azabicyclo[3.2.1]octan-3-yl)amino)-6-methylpyridin-2-yl)-2,6-dimethylpiperazin-1-yl)-2,2,2-trifluoroethan-1-one] | – | EC50 [1]: 0.1 to 100 nM |
| CC[C@@H]1CN(c2ccc(NC3CC4(C3)CC(C(N)=O)C4)c(C)n2)C[C@H](CC)O1 (stereo partly drawn) [Compound 575, 6-((6-((2S,6R)-2,6-diethylmorpholino)-2-methylpyridin-3-yl)amino)spiro[3.3]heptane-2-carboxamide] | – | EC50 [1]: 0.1 to 100 nM |
| COCCNc1ccc2cc(NC3CC4(CC(N)C4)C3)ccc2c1 (stereo not drawn) [Compound 650, N2-(6-aminospiro [3.3]heptan-2-yl)-N6-(2-methoxyethyl) naphthalene-2,6-diamine] | – | EC50 [1]: 0.1 to 100 nM |
| CC(C)(C)c1ccc(NC2CC3(CC(N)C3)C2)cc1 (stereo not drawn) [Compound 276, N2-(4-(tert-butyl)phenyl)spiro[3.3]heptane-2,6-diamine] | 0.1 to 100 nM | – |
| CC[C@@H]1CN(c2ccc(NC3CCC(N)CC3)c(C)n2)C[C@@H](CC)O1 (stereo partly drawn) [Compound 552, N1-(6-((2R,6R)-2,6-diethylmorpholino)-2-methylpyridin-3-yl)cyclohexane-1,4-diamine] | 0.1 to 100 nM | – |
| CCCC1CN(c2ncc(NC3CCC(N)CC3)cn2)C1 (stereo not drawn) [Compound 46, N1-(2-(3-propylazetidin-1-yl)pyrimidin-5-yl)cyclohexane-1,4-diamine] | 100 to 1000 nM | – |
| Cc1nc(N2CC(C)OC(C)C2)ccc1NCCCC1CCC(N)CC1 (stereo not drawn) [Compound 526, N-(3-((1r,4s)-4-aminocyclohexyl)propyl)-6-(2,6-dimethylmorpholino)-2-methyl pyridin-3-amine] | 0.1 to 100 nM | – |
| Cc1nc(N2C[C@@H](C)O[C@@H](C)C2)ccc1NCC12C3C4C1C1C2C3C41CN (stereo partly drawn) [Compound 621, N-((4-(aminomethyl)cuban-1-yl)methyl)-6-((2S,6R)-2,6-dimethylmorpholino)-2-methylpyridin-3-amine] | – | EC50 [1]: 0.1 to 100 nM |
| CC(C)(CN1CCCC1)Nc1ccc(C(C)(C)C)cc1 [Compound 227, 4-(tert-butyl)-N-(2-methyl-1-(pyrrolidin-1-yl)propan-2-yl)aniline] | 1000 to 10000 nM | – |
| CC1CCN(c2ncc(NC3C4CC5CC3CC(C(N)=O)(C5)C4)cn2)CC1 (stereo not drawn) [Compound 405, 4-((2-(4-methylpiperidin-1-yl)pyrimidin-5-yl)amino)adamantane-1-carboxamide] | 0.1 to 100 nM | – |
| NCC1CCC(Nc2ccc(C(F)(F)F)cc2)CC1 (stereo not drawn) [Compound 88, N-(4-(aminomethyl)cyclohexyl)-4-(trifluoromethyl)aniline] | 1000 to 10000 nM | – |
| Cc1ccc(NC2CCC(N)CC2)cc1C (stereo not drawn) [Compound 240, N1-(3,4-dimethylphenyl)cyclohexane-1,4-diamine] | 100 to 1000 nM | – |

Continued, in another order:

| EC50 [2] | SMILES | other results |
| --- | --- | --- |
| 0.1 to 100 nM | CC(C)(C)c1ccc(NC2CCC(CCCN)CC2)cc1 (stereo not drawn) [Compound 287, N-(4-(3-aminopropyl)cyclohexyl)-4-(tert-butyl)aniline] | – |
| 0.1 to 100 nM | CC(C)(C)c1ccc(NC2CCC(NCCCO)CC2)cc1 (stereo not drawn) [Compound 317, 3-((4-((4-(tert-butyl)phenyl)amino)cyclohexyl)amino)propan-1-ol] | – |
| 100 to 1000 nM | Cc1nc(C2CCC(C)(C)CC2)ccc1NC1CCC(CN)CC1 (stereo not drawn) [Compound 80, N-(4-(aminomethyl)cyclohexyl)-6-(4,4-dimethylcyclohexyl)-2-methylpyridin-3-amine] | – |
| 0.1 to 100 nM | CNC(=O)C1CCC(Nc2ccc(N3CCC(C(F)(F)F)CC3)cc2)CC1 (stereo not drawn) [Compound 365, N-methyl-4-((4-(4-(trifluoromethyl)piperidin-1-yl)phenyl)amino)cyclohexane-1-carboxamide] | – |
| 100 to 1000 nM | CN1CCC(Nc2ccc(N3CCC(C(F)(F)F)CC3)cc2)CC1=O (stereo not drawn) [Compound 27, 1-methyl-4-((4-(4-(trifluoromethyl)piperidin-1-yl)phenyl)amino)piperidin-2-one] | – |
| 0.1 to 100 nM | NC1CCC(Nc2ccc(C3CCC(C(F)(F)F)CC3)cc2)CC1 (stereo not drawn) [Compound 280, N1-(4-(4-(trifluoromethyl)cyclohexyl)phenyl)cyclohexane-1,4-diamine] | – |
| 0.1 to 100 nM | CC1(C)CCN(c2ccc(NC3CCC(N)CC3)cc2C(F)(F)F)CC1 (stereo not drawn) [Compound 55, N1-(4-(4,4-dimethylpiperidin-1-yl)-3-(trifluoromethyl)phenyl)cyclohexane-1,4-diamine] | – |
| 0.1 to 100 nM | CCC1CCN(c2ccc(NC3CCC(N)CC3)cc2)CC1 (stereo not drawn) [Compound 61, N1-(4-(4-ethylpiperidin-1-yl)phenyl)cyclohexane-1,4-diamine] | – |
| 0.1 to 100 nM | CC(C)(C)c1ccc(NC2CCC(CN)CC2)cc1 (stereo not drawn) [Compound 96, N-(4-(aminomethyl)cyclohexyl)-4-(tert-butyl)aniline] | – |
| 0.1 to 100 nM | CN(C)CC1CCC(Nc2ccc(C3CCC(C)(C)CC3)cc2)CC1 (single isomer, unassigned) [Compound 97A, N-(4-((dimethylamino)methyl)cyclohexyl)-4-(4,4-dimethylcyclohexyl)aniline] | – |
| 100 to 1000 nM | CC(C)(C)c1ccc(NC2CCC(C(N)=O)CC2)cc1 (stereo not drawn) [Compound 192, 4-((4-(tert-butyl)phenyl)amino)cyclohexane-1-carboxamide] | – |
| 0.1 to 100 nM | C[C@@H](O)[C@H](N)C(=O)NC1CCC(Nc2ccc(C(C)(C)C)cc2)CC1 (stereo partly drawn) [Compound 214, (2S, 3R)-2-amino-N-(4-((4-(tert-butyl)phenyl)amino)cyclohexyl)-3-hydroxybutanamide] | – |
| 100 to 1000 nM | NC1CCC(Nc2ccc(C3CC3)cc2)CC1 (stereo not drawn) [Compound 181, N1-(4-cyclopropylphenyl)cyclohexane-1,4-diamine] | – |
| 0.1 to 100 nM | O=C(NCC1CCC(Nc2ccc(N3CCC(C(F)(F)F)CC3)cc2)CC1)C1CCNC1 (stereo not drawn) [Compound 19, N-((4-((4-(4-(trifluoromethyl)piperidin-1-yl)phenyl)amino)cyclohexyl)methyl)pyrrolidine-3-car boxamide] | – |
| 0.1 to 100 nM | CC1(C)CCC(c2ccc(NC3CCC(CCN)CC3)cc2)CC1 (stereo not drawn) [Compound 118, N-(4-(2-aminoethyl)cyclohexyl)-4-(4,4-dimethylcyclohexyl)aniline] | – |
| 100 to 1000 nM | CC(C)(C)c1ccc(NC2CCC(NS(N)(=O)=O)CC2)cc1 (stereo not drawn) [Compound 259A] | – |
| 0.1 to 100 nM | CN1CCC(NC(=O)C2CCC(Nc3ccc(C4CCC(C)(C)CC4)cc3)CC2)CC1 (stereo not drawn) [Compound 77, 4-((4-(4,4-dimethylcyclohexyl)phenyl)amino)-N-(1-methylpiperidin-4-yl)cyclohexane-1-carbox amide] | – |
